# In ChEMBL document CHEMBL3045010, “Radical scavenging capacities of some thiazolylthiazolidine-2,4-dione derivatives” (Med Chem Res, 2009):
# Assays:
# Format in all cases: functional
# [1] = Antioxidant activity against assessed as superoxide scavenging activity measuring reduction of cytochrome C at 10 '-3 M by spectrophotometry relative to control; set-up: scale not given: the % may be the effect or the level left
# [2] = tested on: Radical scavenging activity; assay: Antioxidant activity against assessed as DPPH radical scavenging activity at 10 '-3 M after 30 min by spectrophotometry relative to control
# [3] = Antioxidant activity against assessed as superoxide scavenging activity measuring reduction of cytochrome C at 10 '-4 M by spectrophotometry relative to control; set-up: scale not given: the % may be the effect or the level left
# [4] = tested on: Radical scavenging activity; assay: Antioxidant activity against assessed as DPPH radical scavenging activity at 10 '-4 M after 30 min by spectrophotometry relative to control
# [5] = tested on: Radical scavenging activity; assay: Antioxidant activity against assessed as DPPH radical scavenging activity at 1.25 x 10 '-4 M after 30 min by spectrophotometry relative to control
# [6] = tested on: Radical scavenging activity; assay: Antioxidant activity against assessed as DPPH radical scavenging activity at 2 x 10 '-4 M after 30 min by spectrophotometry relative to control
smiles,measurement,setting,value
O=C1S/C(=C\c2sc(SCc3ccccc3)nc2Cl)C(=O)N1Cc1ccc(Br)cc1,Activity,[1],35%
same,Activity,[2],19%
same,Activity,[3],88%
same,Activity,[4],74%
O=C1S/C(=C\c2sc(SCc3ccccc3)nc2Cl)C(=O)N1Cc1ccc([N+](=O)[O-])cc1,Activity,[1],11%
same,Activity,[2],14%
same,Activity,[3],96%
same,Activity,[4],43%
Cc1cc(C(C)(C)C)c(O)c(C(C)(C)C)c1,Activity,[2],17%
same,Activity,[5],52%
same,Activity,[6],37%
O=C1S/C(=C\c2sc(Cl)nc2Cl)C(=O)N1Cc1ccc(Br)cc1,Activity,[1],124%
same,Activity,[2],9%
same,Activity,[3],127%
same,Activity,[4],28%
O=C1S/C(=C\c2sc(Cl)nc2Cl)C(=O)N1Cc1ccccc1,Activity,[1],154%
same,Activity,[2],12%
same,Activity,[3],352%
same,Activity,[4],47%
O=C1S/C(=C\c2sc(SCc3ccccc3)nc2Cl)C(=O)N1Cc1ccc(F)cc1,Activity,[1],52%
same,Activity,[2],21%
same,Activity,[3],98%
same,Activity,[4],67%
O=C1S/C(=C\c2sc(SCc3ccccc3)nc2Cl)C(=O)N1Cc1ccccc1,Activity,[1],50%
same,Activity,[2],26%
same,Activity,[3],86%
same,Activity,[4],77%
O=C1S/C(=C\c2sc(SCc3ccccc3)nc2Cl)C(=O)N1Cc1ccc(Cl)cc1,Activity,[1],31%
same,Activity,[2],20%
same,Activity,[3],91%
same,Activity,[4],72%
O=C1S/C(=C\c2sc(Cl)nc2Cl)C(=O)N1Cc1ccc(F)cc1,Activity,[1],73%
same,Activity,[2],11%
same,Activity,[3],129%
same,Activity,[4],28%
O=C1S/C(=C\c2sc(SCc3ccccc3)nc2Cl)C(=O)N1Cc1ccc(Cl)cc1Cl,Activity,[1],16%
same,Activity,[2],20%
same,Activity,[3],101%
same,Activity,[4],58%
O=C1S/C(=C\c2sc(Cl)nc2Cl)C(=O)N1Cc1ccc([N+](=O)[O-])cc1,Activity,[1],339%
same,Activity,[2],9%
same,Activity,[3],114%
same,Activity,[4],52%
O=C1S/C(=C\c2sc(Cl)nc2Cl)C(=O)N1Cc1ccc(Cl)cc1,Activity,[1],9%
same,Activity,[2],57%
same,Activity,[3],32%
same,Activity,[4],73%
O=C1S/C(=C\c2sc(Cl)nc2Cl)C(=O)N1Cc1ccc(Cl)cc1Cl,Activity,[1],99%
same,Activity,[2],9%
same,Activity,[3],110%
same,Activity,[4],12%
